Laboratory results taken from patent US12448388B2, “PRMT5 inhibitors and uses thereof” (Gilead Sciences, Inc., priority 2023, dated 2025).

Test system: HCT116 MTAP-deleted cell lines
Assay: Cell viability assay (CellTiter-Glo, 7 days), HCT116 MTAP-deleted
Type: cell-based
Conditions: Homo sapiens, HCT-116; cell viability, HCT116 MTAP-deleted; class symbols; read-out: CC50
Method: Control compounds were analyzed in parallel each time for quality control. In Brief, on Day -1, a serial dilution of stock compounds in DMSO was performed using BioMek liquid handlers and dispensed using Echo acoustic dispenser into 384 well plates. Both tool compounds and sample compounds were spotted in the same plate for a dose response of PRMT5 inhibitors. Compound plates were stored as frozen until the cells were ready for seeding. […] After equilibrating the plate in room temperature, the cells were incubated for 7 days inside the sealed incubator set at 37° C. with 90% humidity and 5% CO2. On Day 7, the viability of cells was measured using a CTG assay kit (CellTitre-Glo;Promega cat no. G7573). Shortly, 40 μl per well of luminescent cell viability assay reagent were dispensed using EL460 liquid dispenser 5 μl cassette. CTG luminescence signal was measured using an EnVision plate reader (PerkinElmer) in accordance with manufacturer's instruction. […] Selectivity with * is artificially high due to limited solubility of the compound hampering accurate measurement of WT CC50.

Row | Compound | CC50 [µM]
1 | Nc1nc2ccc(C(=O)N3CCO[C@@H]4Cc5cc(C(F)(F)F)ccc5[C@@H]43)cc2n2cncc12 (racemic) [Ff-33, Racemic (4-aminoimidazo[1,5-a]quinoxalin-8-yl)((4aS,9aR)-7-(trifluoromethyl)-2,3,9,9a-tetrahydroindeno[2,1-b][1,4]oxazin-4(4aH)-yl)methanone] | 0.1 to 1
2 | Nc1nc2cc(F)c(C(=O)N3CCO[C@@H]4Cc5cc(C(F)(F)F)ccc5[C@@H]43)cc2n2cncc12 (racemic) [Ff-34, Racemic (4-amino-7-fluoroimidazo[1,5-a]quinoxalin-8-yl)((4aS,9aR)-7-(trifluoromethyl)-2,3,9,9a-tetrahydroindeno[2,1-b][1,4]oxazin-4(4aH)-yl)methanone] | < 0.1
3 | Nc1nc2cc(Cl)c(C(=O)N3CCO[C@@H]4Cc5cc(C(F)(F)F)ccc5[C@@H]43)cc2n2cncc12 (racemic) [Ff-35, Racemic (4-amino-7-chloroimidazo[1,5-a]quinoxalin-8-yl)((4aS,9aR)-7-(trifluoromethyl)-2,3,9,9a-tetrahydroindeno[2,1-b][1,4]oxazin-4(4aH)-yl)methanone] | < 0.1
4 | Nc1nc2cc(F)c(C(=O)N3CCO[C@@H]4Cc5ccccc5[C@@H]43)cc2n2cncc12 (racemic) [Ff-36, Racemic(4-amino-7-fluoroimidazo[1,5-a]quinoxalin-8-yl)((4aS,9aR)-2,3,9,9a-tetrahydroindeno[2,1-b][1,4]oxazin-4(4aH)-yl)methanone] | 0.1 to 1
5 | Nc1nc2ccc(C(=O)N3CCO[C@@H]4Cc5cc(Br)ccc5[C@@H]43)cc2n2cncc12 (racemic) [Ff-37, Racemic (4-aminoimidazo[1,5-a]quinoxalin-8-yl)((4aS,9aR)-7-bromo-2,3,9,9a-tetrahydroindeno[2,1-b][1,4]oxazin-4(4aH)-yl)methanone] | 0.1 to 1
6 | C[C@@H]1OC[C@@H](N(C)C(=O)c2ccc3nc(N)c4cncn4c3c2)c2ccc(C(F)(F)F)cc21 (racemic) [Ff-41, Trans-4-amino-N-methyl-N-(trans-1-methyl-7-(trifluoromethyl)isochroman-4-yl)imidazo[1,5-a]quinoxaline-8-carboxamide] | < 0.1
7 | C[C@H]1OC[C@@H](N(C)C(=O)c2ccc3nc(N)c4cncn4c3c2)c2ccc(C(F)(F)F)cc21 (racemic) [Ff-42, Cis-4-amino-N-methyl-N-(1-methyl-7-(trifluoromethyl)isochroman-4-yl)imidazo[1,5-a]quinoxaline-8-carboxamide] | < 0.1
8 | C[C@H]1CN(C(=O)c2cc3c(cc2F)nc(N)c2cncn23)[C@H]2c3ccccc3C[C@H]2O1 (racemic) [Ff-55, Rac-(4-amino-7-fluoroimidazo[1,5-a]quinoxalin-8-yl)((2S,4aS,9aR)-2-methyl-2,3,9,9a-tetrahydroindeno[2,1-b][1,4]oxazin-4(4aH)-yl)methanone] | < 0.1
9 | C[C@@H]1CN(C(=O)c2cc3c(cc2F)nc(N)c2cncn23)[C@H]2c3ccccc3C[C@H]2O1 (racemic) [Ff-56, Rac-(4-amino-7-fluoroimidazo[1,5-a]quinoxalin-8-yl)((2R,4aS,9aR)-2-methyl-2,3,9,9a-tetrahydroindeno[2,1-b][1,4]oxazin-4(4aH)-yl)methanone] | 0.1 to 1
10 | COc1ccc2c(c1)CO[C@H]1CCN(C(=O)c3cc4c(cc3F)nc(N)c3cncn34)[C@@H]21 (racemic) [Ff-67, Rac-(4-amino-7-fluoroimidazo[1,5-a]quinoxalin-8-yl)((3aS,9bS)-7-methoxy-3,3a,5,9b-tetrahydroisochromeno[4,3-b]pyrrol-1(2H)-yl)methanone] | 0.1 to 1
11 | Nc1nc2ccc(C(=O)N3CC[C@H]4C[C@@H]3c3ccc(C(F)(F)F)cc34)cc2n2cncc12 (racemic) [Ff-74, (Rac)-(4-aminoimidazo[1,5-a]quinoxalin-8-yl)(7-(trifluoromethyl)-1,3,4,5-tetrahydro-2H-1,5-methanobenzo[c]azepin-2-yl)methanone] | 0.1 to 1
12 | CC1COC2Cc3cc(C(F)(F)F)ccc3C2N1C(=O)c1cc2c(cc1F)nc(N)c1cncn12 (racemic) [Ff-85, (4-amino-7-fluoroimidazo[1,5-a]quinoxalin-8-yl)(3-methyl-7-(trifluoromethyl)-2,3,9,9a-tetrahydroindeno[2,1-b][1,4]oxazin-4(4aH)-yl)methanone] | < 0.1
13 | Nc1nc2cc(F)c(C(=O)N3CCO[C@@H]4Cc5nc(C(F)(F)F)ccc5[C@@H]43)cc2n2cncc12 (racemic) [Ff-88, Rac-(4-amino-7-fluoroimidazo[1,5-a]quinoxalin-8-yl)((4aR,9bS)-7-(trifluoromethyl)-2,3,5,9b-tetrahydropyrido[3′,2′:3,4]cyclopenta[1,2-b][1,4]oxazin-1(4aH)-yl)methanone] | 0.1 to 1
14 | Nc1nc2cc(F)c(C(=O)N3CC[C@H]4C[C@@H]3c3ccc(C(F)(F)F)nc34)cc2n2cncc12 (racemic) [Ff-90, Rac-(4-amino-7-fluoroimidazo[1,5-a]quinoxalin-8-yl)((5R,9S)-2-(trifluoromethyl)-5,7,8,9-tetrahydro-6H-5,9-methanopyrido[3,2-c]azepin-6-yl)methanone] | 0.1 to 1
15 | Nc1nc2cc(Cl)c(C(=O)N3CC[C@H]4C[C@@H]3c3ccc(C(F)(F)F)nc34)cc2n2cncc12 (racemic) [Ff-91, Rac-(4-amino-7-chloroimidazo[1,5-a]quinoxalin-8-yl)((5R,9S)-2-(trifluoromethyl)-5,7,8,9-tetrahydro-6H-5,9-methanopyrido[3,2-c]azepin-6-yl)methanone] | < 0.1
16 | Cc1ncc2c(N)nc3cc(F)c(C(=O)N4CCC[C@@H]5Oc6cc(C(F)(F)F)ccc6[C@@H]54)cc3n12 (racemic) [Ff-99, Rac-(4-amino-7-fluoro-1-methylimidazo[1,5-a]quinoxalin-8-yl)(7-(trifluoromethyl)-3,4,4a,9b-tetrahydrobenzofuro[3,2-b]pyridin-1(2H)-yl)methanone] | < 0.1
17 | C[C@@H]1CC[C@@H]2Oc3cc(C(F)(F)F)ccc3[C@@H]2N1C(=O)c1cc2c(cc1F)nc(N)c1cncn12 (racemic) [Ff-100, Rac-(4-amino-7-fluoroimidazo[1,5-a]quinoxalin-8-yl)((2R,4aS,9bS)-2-methyl-7-(trifluoromethyl)-3,4,4a,9b-tetrahydrobenzofuro[3,2-b]pyridin-1(2H)-yl)methanone] | < 0.1
18 | Nc1nc2cc(F)c(C(=O)N3CCC[C@@H]4Oc5cc(F)c(F)cc5[C@@H]43)cc2n2cncc12 (racemic) [Ff-101, Rac-(4-amino-7-fluoroimidazo[1,5-a]quinoxalin-8-yl)((4aS,9bS)-7,8-difluoro-3,4,4a,9b-tetrahydrobenzofuro[3,2-b]pyridin-1(2H)-yl)methanone] | 0.1 to 1
19 | Nc1nc2cc(F)c(C(=O)N3CCC[C@@H]4Oc5c(ccc(F)c5F)[C@@H]43)cc2n2cncc12 (racemic) [Ff-102, Rac-(4-amino-7-fluoroimidazo[1,5-a]quinoxalin-8-yl)((4aS,9bS)-6,7-difluoro-3,4,4a,9b-tetrahydrobenzofuro[3,2-b]pyridin-1(2H)-yl)methanone] | 0.1 to 1
20 | C[C@@H]1CC[C@@H]2Oc3cc(C(F)(F)F)ccc3[C@@H]2N1C(=O)c1cc2c(cn1)nc(N)c1cncn12 (racemic) [Ff-106, Rac-(4-aminoimidazo[1,5-a]pyrido[3,4-e]pyrazin-8-yl)((2R,4aS,9bS)-2-methyl-7-(trifluoromethyl)-3,4,4a,9b-tetrahydrobenzofuro[3,2-b]pyridin-1(2H)-yl)methanone] | < 0.1
21 | Nc1nc2cc(F)c(C(=O)N3C[C@H](F)CC4Oc5cc(C(F)(F)F)ccc5[C@@H]43)cc2n2cncc12 (mixture of isomers) [Ff-112, Rac-(4-amino-7-fluoroimidazo[1,5-a]quinoxalin-8-yl)((3R,4aS,9bS)-3-fluoro-7-(trifluoromethyl)-3,4,4a,9b-tetrahydrobenzofuro[3,2-b]pyridin-1(2H)-yl)methanone] | < 0.1
22 | Nc1nc2cc(F)c(C(=O)N3CCC[C@@H]4Oc5cc(OC(F)F)c(F)cc5[C@@H]43)cc2n2cncc12 (racemic) [Ff-157, rac-(4-amino-7-fluoroimidazo[1,5-a]quinoxalin-8-yl)((4aS,9bS)-7-(difluoromethoxy)-8-fluoro-3,4,4a,9b-tetrahydrobenzofuro[3,2-b]pyridin-1(2H)-yl)methanone] | < 0.1
23 | Nc1nc2cc(F)c(C(=O)N3C[C@H](F)CCC3c3ccc(C(F)(F)F)cn3)cc2n2cncc12 (mixture of isomers) [Ff-228, (4-amino-7-fluoroimidazo[1,5-a]quinoxalin-8-yl)((5R)-5-fluoro-2-(5-(trifluoromethyl)pyridin-2-yl)piperidin-1-yl)methanone] | < 0.1
24 | C[C@H]1CCN(C(=O)c2cc3c(cc2F)nc(N)c2cncn23)[C@@H](c2ccc(C(F)(F)F)cc2)C1 (racemic) [Ff-241, Rac-(4-amino-7-fluoroimidazo[1,5-a]quinoxalin-8-yl)((2R,4S)-4-methyl-2-(4-(trifluoromethyl)phenyl)piperidin-1-yl)methanone] | 0.1 to 1
25 | Nc1nc2ccc(C(=O)N3CCC[C@@H]4Cc5cc(C(F)(F)F)ccc5[C@@H]43)cc2n2cncc12 (racemic) [Ff-249, Rac-(4-aminoimidazo[1,5-a]quinoxalin-8-yl)((4aR,9bR)-7-(trifluoromethyl)-2,3,4,4a,5,9b-hexahydro-1H-indeno[1,2-b]pyridin-1-yl)methanone] | 0.1 to 1
26 | Nc1nc2cnc(C(=O)N3CCC[C@@H]4Cc5cc(C(F)(F)F)ccc5[C@@H]43)cc2n2cncc12 (racemic) [Ff-250, Rac-(4-aminoimidazo[1,5-a]pyrido[3,4-e]pyrazin-8-yl)((4aR,9bR)-7-(trifluoromethyl)-2,3,4,4a,5,9b-hexahydro-1H-indeno[1,2-b]pyridin-1-yl)methanone] | < 0.1
